Columns and labels:
[1] = system: Aconitineinduced arrhythmia, rats; experiment: animal or person; format: in vivo, rats (Sprague Dawley); conditions: for ED50 / Emax: Rattus norvegicus, po; for ED50: 1 h, read-out: Effective dose ED 50 (extends the duration of aconitine infusion by 50%); for Emax: read-out: R.M.A. (relative maximum activity); for Maximum action: Prolongation of the duration of aconitine infusion, Δ% / R.M.A. (relative maximum activity): at the highest nontoxic dose; for Maximum action: Prolongation of the duration of aconitine infusion, Δ% / Maximum action: Dose (highest nontoxic dose): oral, rats; for R.A. (relative activity) / R.M.A. (relative maximum activity): quinidine = 1.00
Method: (§1) To determine the anti-arrhythmic activity, the drugs were administered orally to rats (Sprague Dawley, weight from 180 to 240 g) 45 minutes before the start of the narcosis.
(§2) The animals were narcotized with thiobutabartial (100 mg/kg administered intraperitoneally). The arrhythmogenic substance used was aconitine, which was administered by intravenous infusion (at a rate of 0.005 mg/kg.min) 60 minutes after administration of the test substance.
(§3) For a quantitative evaluation of the linear relation between log dose (mg/kg) of the test substances and relative prolongation of the duration of aconitine infusion (Δ%), the dose which extended the duration of infusion by 50% (ED 50) was determined.

[2] = Acute toxicity, intraperitoneal administration; conditions: mouse, in vivo, ip, female Swiss mice, within 24 hours, read-out: Acute toxicity LD 50
Method: (§4) The acute toxicity was determined on groups of 10 or 20 female Swiss mice, weighing 20-26 g, the compounds being administered intraperitoneally.

[3] = Therapeutic range, quotient of LD 50 (mice) and ED 50 (rats); format: in vivo; conditions: in vivo; LD 50 mice i.p. / ED 50 rats oral
Method: as §1
as §2, with “substance. In the case of untreated animals (N=30), arrhythmias occurred after an average of 3.7±0.9 minutes, the commencement of which can be delayed by anti-arrhythmic agents, the delay depending on the dosage.” for “substance.”
as §3, with “determined. The prior art anti-arrhythmic agent quinidine served as a comparative substance.” for “determined.”
as §4

[4] = system: Aconitineinduced arrhythmia, rats; experiment: as above; format: in vivo; conditions: relative to quinidine
Method: as §1
as §2, with “substance. In the case of untreated animals (N=30), arrhythmias occurred after an average of 3.7±0.9 minutes, the commencement of which can be delayed by anti-arrhythmic agents, the delay depending on the dosage.” for “substance.”
as §3, with “determined. The prior art anti-arrhythmic agent quinidine served as a comparative substance.” for “determined.”
as §4

| SMILES | ED50 [1] | Emax [1] | Maximum action: Prolongation of the duration of aconitine infusion, Δ% [1] | Maximum action: Dose (highest nontoxic dose) [1] | R.A. (relative activity) [1] | LD50 at 24 h [2] | selectivity ratio [3] | R.M.A. (relative maximum activity) [1] | effect achieved with the maximum dose, times as great as that of quinidine ([1]; relative to quinidine) | anti-arrhythmic action, times more powerful than that of quinidine ([1]; relative to quinidine) | therapeutic range, times as great as that of quinidine [4] | therapeutic range compared with that of quinidine (in words) [4] |
| --- | --- | --- | --- | --- | --- | --- | --- | --- | --- | --- | --- | --- |
| Cc1nc(Cc2ccccc2)c2c(c1OCCN(C)C)COC2.Cl.Cl [Example 1, 4-benzyl-6-methyl-1,3-dihydro-furo[3,4-c]pyridin-7-yl β-dimethylaminoethyl ether bis-hydrochloride] | 31 mg/kg | 138% | 184% | 68.1 mg/kg | 1.36 | ~147 mg/kg | ~4.74 |  |  |  |  |  |
| COC(=O)c1c(Cc2ccccc2)nc(C)c(OCCCN(C)C)c1C(=O)OC [Example 18] | 9.82 mg/kg | 222% | 295% | 215 mg/kg | 4.35 | 170 mg/kg | 17.3 |  |  |  |  |  |
| CCOC(=O)c1c(Cc2ccccc2)nc(C)c(OCCCN(C)C)c1C(=O)OCC [Example 25] | 15.9 mg/kg | 147% | 195% | 100 mg/kg | 2.67 | 137 mg/kg | 8.62 |  |  |  |  |  |
| CCc1nc(Cc2ccccc2)c2c(c1OCCCN(C)C)COC2 [Example 29] | 18.1 mg/kg | 204% | 271% | 215 mg/kg | 2.34 | 104 mg/kg | 5.75 |  |  |  |  |  |
| CN(C)CCCOc1c(Cc2ccccc2)nc(Cc2ccccc2)c2c1COC2 [Example 32] |  |  | 319% | 215 mg/kg | 2.84 |  |  | 2.40 |  |  |  |  |
| Cc1nc(Cc2ccccc2)c2c(c1OCCCNC(C)C)COC2 [Example 34, 4-benzyl-6-methyl-1,3-dihydro-furo[3,4-c]pyridin-7-yl 3-isopropylaminopropyl ether] |  |  | 457% | 215 mg/kg | 1.46 |  |  | 3.44 | 3.4 times |  |  |  |
| CCCN(CCC)CCCOc1c(C)nc(Cc2ccccc2)c2c1COC2 [Example 36] | 21 mg/kg | 165% | 219% | 100 mg/kg | 2.01 | 180 mg/kg | 8.57 |  |  |  |  |  |
| Cc1nc(Cc2ccccc2)c2c(c1OCCCN1CCNCC1)COC2 [Example 43] | 28.5 mg/kg | 116% | 154% | 46.4 mg/kg | 1.48 | ~147 mg/kg | ~5.16 |  | 1.2 times |  |  |  |
| Cc1nc(Cc2ccccc2)c2c(c1OCCCCNC(C)C)COC2 [Example 47] |  |  | 358% | 100 mg/kg | 7.47 |  |  | 2.69 |  | 7.5 times | 4.1 times |  |
| Cc1nc(Cc2ccccc2)c2c(c1OCCCCCNC(C)C)COC2 [Example 52] | 16 mg/kg | 169% | 225% | 215 mg/kg | 2.64 | 104 mg/kg | 6.5 |  |  |  |  |  |
| Cc1nc(Cc2ccccc2)c2c(c1OCCC(C)CCNC(C)C)COC2 (stereo not drawn) [Example 55] |  |  | 333% | 100 mg/kg | 3.47 |  |  | 2.50 |  |  |  |  |
| CCN(CC)CCC(C)CCOc1c(C)nc(Cc2ccccc2)c2c1COC2 (stereo not drawn) [Example 57] |  |  | 261% | 100 mg/kg | 3.74 |  |  | 1.96 |  |  |  |  |
| CCNCCCCOc1c(C)nc(Cc2ccccc2)c2c1COC2 [Example 58] | 18.8 mg/kg | 140% | 186% | 100 mg/kg | 2.27 | 114 mg/kg | 6.06 |  |  |  |  |  |
| CCC(C)NCCCCOc1c(C)nc(Cc2ccccc2)c2c1COC2 (stereo not drawn) [Example 60] | 21.1 mg/kg | 185% | 246% | 100 mg/kg | 2.00 | 101 mg/kg | 4.79 |  |  |  |  |  |
| Cc1nc(Cc2ccccc2)c2c(c1OCCCCNC(C)(C)C)COC2 [Example 61] |  |  | 298% | 46.4 mg/kg | 4.60 |  |  | 2.24 |  |  |  |  |
| Cc1nc(Cc2ccccc2)c2c(c1OCCCCN(C(C)C)C(C)C)COC2 [Example 64] | 21.2 mg/kg | 238% | 317% | 100 mg/kg | 2.01 | 156 mg/kg | 7.36 |  |  |  |  |  |
| Cc1nc(Cc2ccccc2)c2c(c1OCCCCNCCC(C)(C)O)COC2 [Example 68] | 15.8 mg/kg | 181% | 241% | 100 mg/kg | 2.70 | ~68.1 mg/kg | ~4.31 |  |  |  |  | as great as |
| Cc1nc(Cc2ccccc2)c2c(c1OCC(O)CNC(C)C)COC2.Cl (stereo not drawn) [Example 69, 4-benzyl-6-methyl-1,3-dihydrofuro[3,4-c]pyridin-7-yl 2-hydroxy-3-isopropylaminopropyl ether hydrochloride] | 23 mg/kg | 164% | 218% | 464 mg/kg | 1.84 | 107 mg/kg | 4.65 |  |  |  |  |  |
| C=C[C@H]1C[N@@]2CC[C@H]1C[C@@H]2[C@@H](O)c1ccnc2ccc(OC)cc12 [Quinidine, quinidine, reference compound] |  |  | 133% |  |  |  |  |  |  |  |  |  |

From patent US4206117A, “Pyridinyl aminoalkyl ethers” (BASF Aktiengesellschaft, priority 1977, dated 1980)
